Test results: the supplement of paper PMC10307832

What was measured:
Experiment in all cases: relative viability (nuclei count vs DMSO), 5 days (fraction); higher = more cells survive
[1] = compound: Cn1cncc1[C@@](N)(c1ccc(Cl)cc1)c1ccc2c(c1)c(-c1cccc(Cl)c1)cc(=O)n2C [Tipifarnib] + COc1cc2c(Oc3ccc(NC(=O)C4(C(=O)Nc5ccc(F)cc5)CC4)cc3F)ccnc2cc1OCCCN1CCOCC1 [Foretinib] (partner 0.25 µM)
How it was run: (§1)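 Lung cancer cell lines were seeded in 1536-well plates and dosed by pin tool the next day, with either a single drug or a fixed anchor-drug dose combined with five library-drug doses (not always all listed) spaced in √10 steps. Five days later, one step fixed the cells and stained their nuclei (final 0.05% Triton X-100, 1% formaldehyde, 1 ug/ml Hoechst), and nuclei were counted on 4× images. Relative viability is the nuclei count in treated wells divided by the count in vehicle wells, and each value is the median of duplicate plates.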

[2] = compound: Cn1cncc1[C@@](N)(c1ccc(Cl)cc1)c1ccc2c(c1)c(-c1cccc(Cl)c1)cc(=O)n2C [Tipifarnib] + Cc1nc(NC(=O)N2CCC[C@H]2C(N)=O)sc1-c1ccnc(C(C)(C)C(F)(F)F)c1 [Alpelisib] (partner 2 µM)
How it was run: as §1

[3] = compound: Cn1cncc1[C@@](N)(c1ccc(Cl)cc1)c1ccc2c(c1)c(-c1cccc(Cl)c1)cc(=O)n2C [Tipifarnib] + Nc1nc2[nH]cc(CCc3ccc(C(=O)N[C@@H](CCC(=O)O)C(=O)O)cc3)c2c(=O)[nH]1 [Pemetrexed] (partner 0.2 µM)
How it was run: as §1

[4] = compound: Cn1cncc1[C@@](N)(c1ccc(Cl)cc1)c1ccc2c(c1)c(-c1cccc(Cl)c1)cc(=O)n2C [Tipifarnib] + O=C(c1cc(Cc2n[nH]c(=O)c3ccccc23)ccc1F)N1CCN(C(=O)C2CC2)CC1 [Olaparib] (partner 8 µM)
How it was run: as §1

Cell Line	relative viability ([1]; first compound 0.01 µM)	relative viability ([1]; first compound 0.03162 µM)	relative viability ([1]; first compound 0.1 µM)	relative viability ([1]; first compound 0.3162 µM)	relative viability ([1]; first compound 1 µM)	relative viability ([2]; first compound 0.01 µM)	relative viability ([2]; first compound 0.03162 µM)	relative viability ([2]; first compound 0.1 µM)	relative viability ([2]; first compound 0.3162 µM)	relative viability ([2]; first compound 1 µM)	relative viability ([3]; first compound 0.01 µM)	relative viability ([3]; first compound 0.03162 µM)	relative viability ([3]; first compound 0.1 µM)	relative viability ([3]; first compound 0.3162 µM)	relative viability ([3]; first compound 1 µM)	relative viability ([4]; first compound 0.01 µM)	relative viability ([4]; first compound 0.03162 µM)	relative viability ([4]; first compound 0.1 µM)	relative viability ([4]; first compound 0.3162 µM)	relative viability ([4]; first compound 1 µM)
NCI-H2126	1.06	1.55	1.1	1.12	1.12	0.759	0.729	0.799	0.733	0.706	0.666	0.691	0.676	0.642	0.503	0.927	0.885	0.844	0.843	0.879
LXF-289	0.998	0.966	0.858	0.825	0.824	1.05	1.05	0.988	0.889	0.983	0.849	0.884	0.835	0.759	0.526	1.12	1.02	0.989	0.805	0.91
PC-14	0.954	1.01	0.912	0.602	0.289	0.99	0.774	0.653	0.392	0.451	0.123	0.154	0.157	0.146	0.149	0.278	0.206	0.279	0.176	0.176
HOP-62	0.809	0.671	0.464	0.305	0.542	1.31	0.824	0.377	0.281	0.325	0.233	0.297	0.276	0.208	0.222	0.337	0.395	0.205	0.193	0.2
NCI-H358	0.884	0.761	0.563	0.433	0.296	0.918	0.748	0.8	0.504	0.431	0.183	0.185	0.193	0.182	0.169	0.607	0.578	0.542	0.48	0.34
SK-MES-1	0.916	0.869	0.905	0.681	0.542	1.03	0.897	0.634	0.648	0.501	0.975	0.919	0.924	0.773	0.648	0.733	0.612	0.783	0.622	0.459
NCI-H1666	0.923	0.888	0.866	0.873	0.748	1	0.725	0.851	0.717	0.538	0.908	0.889	0.766	0.844	0.842	0.737	0.672	0.779	0.731	0.721
NCI-H1355	1.12	0.94	0.855	0.694	0.734	0.874	0.804	0.678	0.518	0.599	1.04	0.966	0.81	0.776	0.745	0.801	0.706	0.55	0.559	0.507
HCC-827	1.06	1.05	0.741	0.63	0.568	1.04	1.03	0.767	0.626	0.667	0.273	0.32	0.286	0.25	0.275	0.68	0.693	0.545	0.443	0.478
HARA	1.1	0.828	0.96	0.951	0.269	0.924	0.792	0.781	0.662	0.653	0.23	0.32	0.293	0.297	0.249	0.842	0.865	0.762	0.996	0.76
HCC-366	1.04	0.995	0.586	0.631	0.121	0.559	0.47	0.272	0.159	0.0543	0.145	0.143	0.167	0.127	0.0507	0.302	0.327	0.164	0.199	0.106
NCI-H322M	0.964	1.15	0.849	0.876	0.783	0.765	0.816	0.767	0.741	0.658	0.605	0.681	0.68	0.641	0.625	0.825	0.772	0.884	0.774	0.91
NCI-H2347	1.34	0.76	0.723	0.756	0.528	1.05	0.798	0.714	0.689	0.674	0.455	0.446	0.446	0.406	0.398	0.59	0.46	0.563	0.473	0.472
